Results: patent publication US20170107207A1, “AMINOPYRAZOLONE DERIVATIVE” (DAIICHI SANKYO COMPANY, LIMITED, priority 2014, published 2017)

What was measured:
Assay type in all cases: cell-based
[1] = tested on: 786-0; test: Cell growth inhibition test, 786-0; settings: Homo sapiens, 72 h; 786-0, Kidney cancer, 3 days, CellTiter-Glo
Experimental: (§1) A cell growth inhibition test was carried out by treating a cultured cancer cell line with a test compound for a given period and then counting the number of viable cells by CellTiter-Glo Luminescent Cell Viability Assay (manufactured by Promega Corp.).
(§2) The following cells were inoculated to a 384-well plate containing the compound prepared in advance at predetermined concentrations. […]
(§3) The cells thus inoculated were cultured at 37° C. for 3 days under 5% CO2. […] Then, luminescence intensity was measured using a plate reader.
(§4) The number of viable cells and luminescence intensity have been confirmed to correlate with each other. Therefore, the rate of cell growth was calculated according to the following expression: Rate of cell growth (T/C %) of a test compound-supplemented well=100×[(B−C)/(A−C)] wherein A represents the luminescence intensity (final culture date) of a test compound-free well; B represents the luminescence intensity (final culture date) of a test compound-containing well; and C represents the luminescence intensity (day of cell inoculation) of a well at the start of contact of the cells with the test compound.
(§5) T/C % at the concentration of each of the serially diluted test compounds was determined. […]

[2] = tested on: SK-BR-3; test: Cell growth inhibition test, SK-BR-3; settings: Homo sapiens, 72 h; SK-BR-3, Breast cancer, 3 days, CellTiter-Glo
Experimental: as §1, §2, §3, §4, §5

[3] = tested on: CALU-6; test: Cell growth inhibition test, CALU-6; settings: Homo sapiens, 72 h; CALU-6, Lung cancer, 3 days, CellTiter-Glo
Experimental: as §1, §2, §3, §4, §5

[4] = tested on: U-138 MG; test: Cell growth inhibition test, U-138 MG; settings: Homo sapiens, U138-MG, 72 h, Brain tumor Central Nerve System, 3 days, CellTiter-Glo
Experimental: as §1, §2, §3, §4, §5

[5] = tested on: NALM-6; test: Cell growth inhibition test, NALM-6; settings: Homo sapiens, 72 h; NALM-6, Leukemia, 3 days, CellTiter-Glo
Experimental: as §1, §2, §3, §4, §5

[6] = tested on: RL952; test: Cell growth inhibition test, RL952; settings: Homo sapiens, RL95-2, 72 h; RL952, Endometrial cancer, 3 days, CellTiter-Glo
Experimental: as §1, §2, §3, §4, §5

[7] = tested on: ES-2; test: Cell growth inhibition test, ES-2; settings: Homo sapiens, 72 h; ES-2, Ovary cancer, 3 days, CellTiter-Glo
Experimental: as §1, §2, §3, §4, §5

[8] = tested on: D283 Med; test: Cell growth inhibition test, D283 Med; settings: Homo sapiens, 72 h, Brain tumor Central Nerve System, 3 days, CellTiter-Glo
Experimental: as §1, §2, §3, §4, §5

[9] = tested on: MV-4-11; test: Cell growth inhibition test, MV-4-11; settings: Homo sapiens, MV4-11, 72 h; MV-4-11, Leukemia, 3 days, CellTiter-Glo
Experimental: as §1, §2, §3, §4, §5

[10] = tested on: SK-OV-3; test: Cell growth inhibition test, SK-OV-3; settings: Homo sapiens, 72 h; SK-OV-3, Ovary cancer, 3 days, CellTiter-Glo
Experimental: as §1, §2, §3, §4, §5

[11] = tested on: MOLT-4; test: Cell growth inhibition test, MOLT-4; settings: Homo sapiens, 72 h; MOLT-4, Leukemia, 3 days, CellTiter-Glo
Experimental: as §1, §2, §3, §4, §5

[12] = tested on: A-431; test: Cell growth inhibition test, A-431; settings: Homo sapiens, 72 h; A-431, Skin cancer, 3 days, CellTiter-Glo
Experimental: as §1, §2, §3, §4, §5

[13] = tested on: SW620; test: Cell growth inhibition test, SW620; settings: Homo sapiens, SW-620, 72 h; SW620, Large intestine cancer, 3 days, CellTiter-Glo
Experimental: as §1, §2, §3, §4, §5

[14] = tested on: OCI-LY7; test: Cell growth inhibition test, OCI-LY7; settings: Homo sapiens, 72 h; OCI-LY7, Lymphoma, 3 days, CellTiter-Glo
Experimental: as §1, §2, §3, §4, §5

[15] = tested on: KARPAS 422; test: Cell growth inhibition test, KARPAS 422; settings: Homo sapiens, 72 h; KARPAS 422, Lymphoma, 3 days, CellTiter-Glo
Experimental: as §1, §2, §3, §4, §5

[16] = tested on: MOLT-3; test: Cell growth inhibition test, MOLT-3; settings: Homo sapiens, 72 h; MOLT-3, Leukemia, 3 days, CellTiter-Glo
Experimental: as §1, §2, §3, §4, §5

[17] = tested on: ACHN; test: Cell growth inhibition test, ACHN; settings: Homo sapiens, 72 h, Kidney cancer, 3 days, CellTiter-Glo
Experimental: as §1, §2, §3, §4, §5

[18] = tested on: HT-1080; test: Cell growth inhibition test, HT-1080; settings: Homo sapiens, 72 h; HT-1080, Bone and soft tissue tumor, 3 days, CellTiter-Glo
Experimental: as §1, §2, §3, §4, §5

[19] = tested on: HCT 116; test: Cell growth inhibition test, HCT 116; settings: Homo sapiens, 72 h; HCT 116, Large intestine cancer, 3 days, CellTiter-Glo
Experimental: as §1, §2, §3, §4, §5

| SMILES | GI50 [1] [µM] | GI50 [2] [µM] | GI50 [3] [µM] | GI50 [4] [µM] | GI50 [5] [µM] | GI50 [6] [µM] | GI50 [7] [µM] | GI50 [8] [µM] | GI50 [9] [µM] | GI50 [10] [µM] | GI50 [11] [µM] | GI50 [12] [µM] | GI50 [13] [µM] | GI50 [14] [µM] | GI50 [15] [µM] | GI50 [16] [µM] | GI50 [17] [µM] | GI50 [18] [µM] | GI50 [19] [µM] |
| --- | --- | --- | --- | --- | --- | --- | --- | --- | --- | --- | --- | --- | --- | --- | --- | --- | --- | --- | --- |
| CCOc1ncc(Cl)cc1C(=O)NCC(C)(C)CC(=O)Nc1c([C@H](C)CN(C)C)n(C)n(-c2ccccc2)c1=O [Example 73, 5-Chloro-N-[4-({5-[(1R)-2-(dimethylamino)-1-methylethyl]-1-methyl-3-oxo-2-phenyl-2,3-dihydro-1H-pyrazol-4-yl}amino)-2,2-dimethyl-4-oxobutyl]-2-ethoxypyridine-3-carboxamide] | 0.92 | 1 | 0.78 | 1 | 0.33 | 0.89 | 0.9 | 0.31 | 0.49 | 0.98 | 0.18 | 0.54 | 1.6 | 0.37 | 0.35 | 0.19 | 2.5 | 0.52 | 0.46 |
| CCOc1cc(F)c(Cl)cc1C(=O)NCC(C)(C)CC(=O)Nc1c(COC)n(C)n(-c2ccccc2)c1=O [Example 113, 5-Chloro-2-ethoxy-4-fluoro-N-(4-{[5-(methoxymethyl)-1-methyl-3-oxo-2-phenyl-2,3-dihydro-1H-pyrazol-4-yl]amino}-2,2-dimethyl-4-oxobutyl)benzamide] | 0.32 | 0.65 | 0.68 | 1 | 0.27 | 0.87 | 0.75 | 0.23 | 0.4 | 0.7 | 0.16 | 0.39 | 0.91 | 0.15 | 0.45 | 0.15 | 0.97 | 0.35 | 0.23 |
| CCOc1ccc(Cl)cc1C(=O)NCC(C)(C)CC(=O)Nc1c([C@H](C)CN(C)C)n(C)n(-c2ccccc2)c1=O [Example 68, 5-Chloro-N-[4-({5-[(1R)-2-(dimethylamino)-1-methylethyl]-1-methyl-3-oxo-2-phenyl-2,3-dihydro-1H-pyrazol-4-yl}amino)-2,2-dimethyl-4-oxobutyl]-2-ethoxybenzamide] | 0.68 | 0.52 | 0.43 | 0.67 | 0.13 | 0.53 | 0.48 | 0.13 | 0.21 | 0.51 | 0.13 | 0.21 | 0.84 | 0.13 | 0.2 | 0.11 | 1.8 | 0.22 | 0.18 |
